{"source": "patent US5266591A", "about": "“Ethanolamine benzoate compounds” (Adir et Compagnie, priority 1991, dated 1993)", "key": {"esters of cholesterol": {"tested_on": "esters of cholesterol", "test": "Incorporation of oleate in the esters of cholesterol", "assay_type": "cell-based", "details": "for inhibition at 10 µM: read-out: Incorporation of oleate in the esters of cholesterol"}, "[1]": {"tested_on": "52-week-old male SDCD rats", "test": "Chronic treatment per os of 52-week-old male SDCD rats (weight, insulinaemia, glycaemia, glucose tolerance, lipids)", "assay_type": "in vivo, rat", "details": "14 days; for % weight change: 52-week-old male SDCD rats; for Basal insulinaemia % change / Cholesterol % change / Glucose tolerance K 10^-2 % change / Glycaemia % change / Triglyceride % change: vs control", "protocol": "A. Study of the Effect of a Chronic Treatment Administered Per OS to 52-Week-Old Male SDCD Rats The tests are carried out on rats that have weight anomalies associated with hyperinsulism and hyperglyceridaemia. on the one hand the effect of a prolonged treatment with the product of Example 1 and the reference substances on those anomalies, and In this experiment, adult male SPRAGUE DAWLEY rats were used in groups of 5 to 12 animals. […]\na reduction in glucose tolerance, an increase in basal insulinaemia, and an increase in plasma lipids.\nThe housing (from 9 to 52 weeks) of these rats was effected in a chamber at a temperature regulated at from 21° to 22° C. which was subjected to a fixed cycle of light (from 7.30 to 19.30 hours) and darkness (from 19.30 to 7.30 hours). Their food consisted of a maintenance diet (UAR A 03); water and food were supplied \"ad libitum\", with the exception of the night-fasting preceding the tests, when the food was removed.\n9 days before the beginning of the experiment (d-9), the rats are divided into groups by randomisation based on weight.\n5 days before the beginning of the experiment (d-5) the rats are conditioned by administering a gum solution.\nThe first day of the experiment (d1), the products to be tested are administered to the rats at different doses twice per day. More precisely, the products are administered suspended in the gum between 9.00 and 10.00 hours and 16.00 and 17.00 hours for 14 days. The treated animals are weighed daily.\nOn day 15 the rats (fasted for 18 hours) are sacrificed by decapitation. The blood is immediately collected in a cupule. An amount (50 μl ) is transferred into 500 μl of uranyl acetate for determining the glycaemia. An amount of 3 ml is transferred into a tube containing a solution of heparin (30 μl per 1 ml of whole blood) and centrifuged to separate the plasma. Another amount of 300 μl is transferred to a tube containing 15 μl of a solution of EDTA/NaF for determining the lactates."}, "[2]": {"tested_on": "LDL (low-density lipoproteins)", "test": "In vitro LDL oxidation by monocytes", "assay_type": "cell-based", "details": "for In vitro LDL oxidation by monocytes, activity: at 10^-4 M", "protocol": "(§1) A comparative study between the product of Example 1 and the reference substances (benfluorex, dimethyl biguanide) with respect to in vitro LDL oxidation was carried out."}, "[3]": {"tested_on": "LDL (low-density lipoproteins)", "test": "In vitro LDL oxidation by copper", "assay_type": "biochemical", "protocol": "as §1"}, "conscious dogs": {"tested_on": "conscious dogs", "test": "Hypotensive effect in conscious dogs (sphygmomanometer on the tail)", "assay_type": "in vivo", "details": "conscious dog, 5 mg/kg p.o., n = 4", "protocol": "The arterial pressure was measured by external pressure band (sphygmomanometer) on the tail of the dog, before and after treatment with the product of Example 1 at a dose of 5 mg/kg p.o.."}}, "note": "Read-outs that look alike come from different tables or passages of the source."}
{"smiles": "CC(Cc1cccc(C(F)(F)F)c1)NCCOC(=O)c1ccccc1", "note": "(stereo not shown) [Benfluorex]", "values": [{"measurement": "inhibition at 10 µM", "setting": "esters of cholesterol; at 10^-5 M", "result": 30, "unit": "%"}, {"measurement": "% weight change", "setting": "[1]; 1 mg/kg x2 per day p.o.", "result": -2, "unit": "%"}, {"measurement": "Basal insulinaemia % change", "setting": "[1]; 1 mg/kg x2 per day p.o.", "result": -10, "unit": "%"}, {"measurement": "Cholesterol % change", "setting": "[1]; 1 mg/kg x2 per day p.o.", "result": -20, "unit": "%"}, {"measurement": "Glucose tolerance K 10^-2 % change", "setting": "[1]; 1 mg/kg x2 per day p.o.", "result": "+30%"}, {"measurement": "Glycaemia % change", "setting": "[1]; 1 mg/kg x2 per day p.o.", "result": -10, "unit": "%"}, {"measurement": "Triglyceride % change", "setting": "[1]; 1 mg/kg x2 per day p.o.", "result": -43, "unit": "%"}, {"measurement": "% weight change", "setting": "[1]; 2.5 mg/kg x2 per day p.o.", "result": -6, "unit": "%"}, {"measurement": "Basal insulinaemia % change", "setting": "[1]; 2.5 mg/kg x2 per day p.o.", "result": -16, "unit": "%"}, {"measurement": "Cholesterol % change", "setting": "[1]; 2.5 mg/kg x2 per day p.o.", "result": -30, "unit": "%"}, {"measurement": "Glucose tolerance K 10^-2 % change", "setting": "[1]; 2.5 mg/kg x2 per day p.o.", "result": "+25%"}, {"measurement": "Glycaemia % change", "setting": "[1]; 2.5 mg/kg x2 per day p.o.", "result": -12, "unit": "%"}, {"measurement": "Triglyceride % change", "setting": "[1]; 2.5 mg/kg x2 per day p.o.", "result": -44, "unit": "%"}, {"measurement": "In vitro LDL oxidation by monocytes, activity", "setting": "[2]", "result": "inactive"}, {"measurement": "In vitro LDL oxidation by copper, activity", "setting": "[3]; at 10^-4 M", "result": "inactive"}]}
{"smiles": "CN(C)C(=N)NC(=N)N", "note": "[Dimethyl biguanide]", "values": [{"measurement": "Incorporation of oleate in the esters of cholesterol", "setting": "esters of cholesterol; at 10^-5 M", "result": "inactive"}, {"measurement": "In vitro LDL oxidation by monocytes, activity", "setting": "[2]", "result": "inactive"}]}
{"smiles": "C[C@@H](Cc1cccc(C(F)(F)F)c1)NCCOC(=O)c1ccc(CCNC(=O)CC(c2ccccc2)c2ccccc2)cc1", "note": "[Example 1, (S)-1-(m-trifluoromethylphenyl)-2-{β-{4-[2-(N-(3,3-diphenylpropionyl)amino)ethyl]benzoyloxy}ethylamino}propane]", "values": [{"measurement": "inhibition at 10 µM", "setting": "esters of cholesterol", "result": 70, "unit": "%"}, {"measurement": "% weight change", "setting": "[1]; 1 mg/kg x2 per day p.o.", "result": -1.4, "unit": "%"}, {"measurement": "Basal insulinaemia % change", "setting": "[1]; 1 mg/kg x2 per day p.o.", "result": -15, "unit": "%"}, {"measurement": "Cholesterol % change", "setting": "[1]; 1 mg/kg x2 per day p.o.", "result": 0, "unit": "%"}, {"measurement": "Glucose tolerance K 10^-2 % change", "setting": "[1]; 1 mg/kg x2 per day p.o.", "result": "+23%"}, {"measurement": "Glycaemia % change", "setting": "[1]; 1 mg/kg x2 per day p.o.", "result": "+8%"}, {"measurement": "Triglyceride % change", "setting": "[1]; 1 mg/kg x2 per day p.o.", "result": -10, "unit": "%"}, {"measurement": "% weight change", "setting": "[1]; 2.5 mg/kg x2 per day p.o.", "result": -3, "unit": "%"}, {"measurement": "Basal insulinaemia % change", "setting": "[1]; 2.5 mg/kg x2 per day p.o.", "result": -26, "unit": "%"}, {"measurement": "Cholesterol % change", "setting": "[1]; 2.5 mg/kg x2 per day p.o.", "result": 0, "unit": "%"}, {"measurement": "Glucose tolerance K 10^-2 % change", "setting": "[1]; 2.5 mg/kg x2 per day p.o.", "result": "+30%"}, {"measurement": "Glycaemia % change", "setting": "[1]; 2.5 mg/kg x2 per day p.o.", "result": 0, "unit": "%"}, {"measurement": "Triglyceride % change", "setting": "[1]; 2.5 mg/kg x2 per day p.o.", "result": -20, "unit": "%"}, {"measurement": "Decrease in arterial pressure, diastolic AP", "setting": "conscious dogs", "result": "-20 to -27", "unit": "mmHg"}, {"measurement": "Decrease in arterial pressure, systolic AP", "setting": "conscious dogs", "result": "-15 to -22", "unit": "mmHg"}, {"measurement": "IC50", "setting": "[2]; read-out: In vitro LDL oxidation by monocytes, IC50", "result": 50, "unit": "µM"}, {"measurement": "IC50", "setting": "[3]", "result": 50, "unit": "µM"}]}
